According to ChEMBL document CHEMBL4229544, “Design, synthesis and antibacterial properties of pyrimido[4,5-b]indol-8-amine inhibitors of DNA gyrase” (Bioorg Med Chem Lett, 2018):
Converted amounts (≈) assume the structure as drawn.

Tests used:
Format in all cases: functional
[1] = tested on: Mycobacterium tuberculosis; test: Antitubercular activity against fluoroquinolone-resistant Mycobacterium tuberculosis H37Rv harboring gyrA D94N mutant
[2] = tested on: Mycobacterium tuberculosis; test: Antitubercular activity against isoniazid-resistant Mycobacterium tuberculosis H37Rv harboring katG Y155 mutant
[3] = tested on: Mycobacterium tuberculosis; test: Antitubercular activity against rifampicin-resistant Mycobacterium tuberculosis H37Rv harboring RpoB S522L mutant

SMILES	MIC [1] [µg/mL]	MIC [2] [µg/mL]	MIC [3] [µg/mL]
NNC(=O)c1ccncc1 [ISONIAZID]	0.05 (≈ 0.365 µM)	>27	0.014 (≈ 0.102 µM)
CO[C@@H]1[C@@H](OC(N)=O)[C@@H](O)[C@H](Oc2ccc3c(O)c(NC(=O)c4ccc(O)c(CC=C(C)C)c4)c(=O)oc3c2C)OC1(C)C [NOVOBIOCIN]	7.35 (≈ 12 µM)	6.7 (≈ 10.9 µM)	13.5 (≈ 22 µM)
CNc1cc(F)cc2c1[nH]c1nc(CNC(=O)c3cnco3)nc(N3CCC(N)C3)c12 (stereo not drawn)	0.09 (≈ 0.212 µM)	0.09 (≈ 0.212 µM)	0.09 (≈ 0.212 µM)
CO[C@H]1/C=C/O[C@@]2(C)Oc3c(C)c(O)c4c(O)c(c(/C=N/N5CCN(C)CC5)c(O)c4c3C2=O)NC(=O)/C(C)=C\C=C\[C@H](C)[C@H](O)[C@@H](C)[C@@H](O)[C@@H](C)[C@H](OC(C)=O)[C@@H]1C [RIFAMPIN]	0.019 (≈ 0.0231 µM)	0.013 (≈ 0.0158 µM)	3 (≈ 3.65 µM)
CNc1cc(F)cc2c1[nH]c1nc(CNC(=O)c3cocn3)nc(N3CCC(N)C3)c12 (stereo not drawn)	0.014 (≈ 0.033 µM)	0.013 (≈ 0.0306 µM)	0.012 (≈ 0.0283 µM)
COc1c(N2C[C@@H]3CCCN[C@@H]3C2)c(F)cc2c(=O)c(C(=O)O)cn(C3CC3)c12 [MOXIFLOXACIN]	3.9 (≈ 9.72 µM)	0.04 (≈ 0.0996 µM)	0.04 (≈ 0.0996 µM)
